Results taken from US11464749B2, “Bismuth-thiol compositions and methods of use” (Microbion Corporation, priority 2018, dated 2022).
Values after ≈ are worked out from the molar mass of the structure shown.

Assays:
Escherichia coli [1] = details: E. coli MMX 102 (ATCC 25922); CLSI QC ranges shown in parenthesis; cited from earlier work
Pseudomonas aeruginosa [2] = details: P. aeruginosa MMX 103 (ATCC 27853); CLSI QC ranges shown in parenthesis; cited from earlier work
Escherichia coli [3] = experiment: Broth microdilution MIC (Example 11)
Klebsiella pneumoniae = experiment: Broth microdilution MIC (Example 11)
Enterobacter cloacae = experiment: Broth microdilution MIC (Example 11); details: ATCCBAA2468
Pseudomonas aeruginosa [4] = experiment: Broth microdilution MIC (Example 11)
Acinetobacter baumannii = experiment: Broth microdilution MIC (Example 11)
[5] = tested on: Staphylococcus aureus (MRSA); experiment: Broth microdilution MIC (Example 11)
E. faecalis = experiment: Broth microdilution MIC (Example 11); details: VRE Lev^R Cip^R Ery^R
S. pneumoniae = experiment: Broth microdilution MIC (Example 11); details: Streptococcus pneumoniae
S. pyogenes = experiment: Broth microdilution MIC (Example 11); details: Streptococcus pyogenes
S. agalactiae = experiment: Broth microdilution MIC (Example 11); details: Streptococcus agalactiae
[6] = tested on: vancomycin-intermediate Staphylococcus aureus (VISA); experiment: Broth microdilution MIC (Example 12); details: Staphylococcus aureus, NRS13 / VISA, read-out: MIC values
Haemophilus influenzae = experiment: Broth microdilution MIC against Haemophilus influenzae clinical isolates; details: Haemophilus influenzae
E. faecium = experiment: Broth microdilution MIC (Example 11); details: VRE vanA Lev^R Cip^R Ery^R

Q: With `C[C@H]1COc2c(N3CCN(C)CC3)c(F)cc3c(=O)c(C(=O)O)cn1c23` [Levofloxacin, reference compound] as the molecule, how does the “CLSI QC range of MIC” value (Escherichia coli [1]) read?
A: (0.008-0.06)^1 μg/mL

Q: And the “CLSI QC range of MIC” value (Pseudomonas aeruginosa [2])?
A: (0.5-4) μg/mL

Q: What about the MIC (Escherichia coli [3]; ATCC25922, E. coli MMX 102 (ATCC 25922), QC) of the same molecule?
A: 0.015 µg/mL (≈ 0.0415 µM)

Q: What about the MIC (Escherichia coli [3]; ATCCBAA2469, E. coli MMX 5980 (ATCC BAA-2469), NDM-1, Lev^R, MEM^R, CAZ^R, Gm^R) of the same molecule?
A: 16 µg/mL (≈ 44.3 µM)

Q: What about the MIC (Escherichia coli [3]; E. coli MMX 8423, ESBL, Lev^R, CAZ^R, Gm^R) of the same molecule?
A: 16 µg/mL (≈ 44.3 µM)

Q: What about the MIC (Escherichia coli [3]; E. coli MMX 8424, ESBL, CAZ^R) of the same molecule?
A: 0.06 µg/mL (≈ 0.166 µM)

Q: What about the MIC (Escherichia coli [3]; E. coli MMX 8425, ESBL, Lev^R, CAZ^R, Gm^R) of the same molecule?
A: 16 µg/mL (≈ 44.3 µM)

Q: What about the MIC (Klebsiella pneumoniae; K. pneumoniae MMX 4622, KPC-2, MEM^R, CAZ^R) of the same molecule?
A: 1 µg/mL (≈ 2.77 µM)

Q: And the MIC (Klebsiella pneumoniae; K. pneumoniae MMX 4623, KPC-2, MEM^R, CAZ^R, GM^R)?
A: 1 µg/mL (≈ 2.77 µM)

Q: What about the MIC (Klebsiella pneumoniae; K. pneumoniae MMX 4653, KPC-3, Lev^R, MEM^R, CAZ^R) of the same molecule?
A: 64 µg/mL (≈ 177 µM)

Q: What about the MIC (Klebsiella pneumoniae; K. pneumoniae MMX 4683, KPC-2, Lev^R, MEM^R, CAZ^R) of the same molecule?
A: > 64 µg/mL

Q: What about the MIC (Klebsiella pneumoniae; K. pneumoniae MMX 4684, ESBL, MEM^R) of the same molecule?
A: 0.03 µg/mL (≈ 0.083 µM)

Q: And the MIC (Klebsiella pneumoniae; K. pneumoniae MMX 4685, ESBL, Lev^R, MEM^R, CAZ^R)?
A: 32 µg/mL (≈ 88.6 µM)

Q: What about the MIC (Klebsiella pneumoniae; K. pneumoniae MMX 4694, KPC-3, Lev^R, MEM^R, CAZ^R) of the same molecule?
A: 64 µg/mL (≈ 177 µM)

Q: And the MIC (Klebsiella pneumoniae; K. pneumoniae MMX 5979, NDM-1, Lev^R, MEM^R, CAZ^R, Gm^R)?
A: > 64 µg/mL

Q: And the MIC (Enterobacter cloacae)?
A: 64 µg/mL (≈ 177 µM)

Q: And the MIC (Pseudomonas aeruginosa [4]; Pseudomonas aeruginosa, ATCC27853, P. aeruginosa MMX 103 (ATCC 27853), QC)?
A: 1 µg/mL (≈ 2.77 µM)

Q: And the MIC (Pseudomonas aeruginosa [4]; Pseudomonas aeruginosa, P. aeruginosa MMX 1381, MDR, Lev^R, Cip^R, MEM^R, CAZ^R)?
A: 64 µg/mL (≈ 177 µM)

Q: And the MIC (Pseudomonas aeruginosa [4]; Pseudomonas aeruginosa, P. aeruginosa MMX 2562, MDR, Lev^R, Cip^R, MEM^R, CAZ^R)?
A: 64 µg/mL (≈ 177 µM)

Q: What about the MIC (Pseudomonas aeruginosa [4]; Pseudomonas aeruginosa, P. aeruginosa MMX 3991, MDR, Lev^R, Cip^R, MEM^R, CAZ^R) of the same molecule?
A: 64 µg/mL (≈ 177 µM)

Q: What about the MIC (Pseudomonas aeruginosa [4]; Pseudomonas aeruginosa, P. aeruginosa MMX 4654, IMP-7, Lev^R, Cip^R, MEM^R, CAZ^R) of the same molecule?
A: 64 µg/mL (≈ 177 µM)

Q: And the MIC (Pseudomonas aeruginosa [4]; Pseudomonas aeruginosa, P. aeruginosa MMX 4697, VIM-2, Lev^R, Cip^R, MEM^R, CAZ^R)?
A: 32 µg/mL (≈ 88.6 µM)

Q: And the MIC (Acinetobacter baumannii; Acinetobacter baumannii, A. baumannii MMX 2592, MDR, Lev^R, Cip^R, MEM^R, CAZ^R, Gm^R)?
A: 64 µg/mL (≈ 177 µM)

Q: What about the MIC (Acinetobacter baumannii; Acinetobacter baumannii, A. baumannii MMX 2593, MDR, Lev^R, Cip^R, MEM^R, CAZ^R, Gm^R) of the same molecule?
A: 32 µg/mL (≈ 88.6 µM)

Q: And the MIC (Acinetobacter baumannii; Acinetobacter baumannii, A. baumannii MMX 3372, MDR, Cip^R, MEM^I, CAZ^I)?
A: 1 µg/mL (≈ 2.77 µM)

Q: And the MIC (Acinetobacter baumannii; Acinetobacter baumannii, A. baumannii MMX 3373, Sensitive)?
A: 0.12 µg/mL (≈ 0.332 µM)

Q: What about the MIC (Acinetobacter baumannii; Acinetobacter baumannii, NCTC13304, A. baumannii MMX 4651 (NCTC 13304), MDR, OXA-27, Lev^R, Cip^R, MEM^R, CAZ^R, Gm^I) of the same molecule?
A: 8 µg/mL (≈ 22.1 µM)

Q: What about the MIC ([5]; ATCC29213|MRSA|MSSA, S. aureus MMX 101 (ATCC 29213), QC, MSSA) of the same molecule?
A: 0.12 µg/mL (≈ 0.332 µM)

Q: What about the MIC ([5]; MRSA, S. aureus MMX 5373, MRSA Lev^R Cip^R CC^R Ery^R Ox^R) of the same molecule?
A: 32 µg/mL (≈ 88.6 µM)

Q: And the MIC ([5]; MRSA, S. aureus MMX 6311, MRSA Lev^R Cip^R CC^R Ery^R Ox^R)?
A: 32 µg/mL (≈ 88.6 µM)

Q: What about the MIC ([5]; MRSA, S. aureus MMX 9203, MRSA Lev^R Cip^R Ery^R Ox^R) of the same molecule?
A: 4 µg/mL (≈ 11.1 µM)

Q: And the MIC ([5]; MRSA, S. aureus MMX 9204, MRSA Lev^R Cip^R Ery^R Ox^R)?
A: 4 µg/mL (≈ 11.1 µM)

Q: And the MIC ([5]; MRSA, S. aureus MMX 9205, MRSA Lev^R Cip^R CC^R Ery^R Ox^R)?
A: > 64 µg/mL

Q: And the MIC (E. faecalis; Enterococcus faecalis, VRE, E. faecalis MMX 8960)?
A: 32 µg/mL (≈ 88.6 µM)

Q: And the MIC (E. faecalis; Enterococcus faecalis, VRE, E. faecalis MMX 8961)?
A: 64 µg/mL (≈ 177 µM)

Q: And the MIC (E. faecalis; Enterococcus faecalis, VRE, E. faecalis MMX 8962)?
A: 64 µg/mL (≈ 177 µM)

Q: And the MIC (S. pneumoniae; ATCC49619, S. pneumoniae MMX 6837 (ATCC 49619), QC)?
A: 0.5 µg/mL (≈ 1.38 µM)

Q: What about the MIC (S. pneumoniae; S. pneumoniae MMX 880, Lev^R SXT^R CC^R Ery^R Pen^R) of the same molecule?
A: 8 µg/mL (≈ 22.1 µM)

Q: And the MIC (S. pneumoniae; S. pneumoniae MMX 937, Mem^R SXT^R CC^R Ery^R Pen^R)?
A: 1 µg/mL (≈ 2.77 µM)

Q: What about the MIC (S. pneumoniae; S. pneumoniae MMX 3959, CC^R Ery^R) of the same molecule?
A: 1 µg/mL (≈ 2.77 µM)

Q: What about the MIC (S. pneumoniae; S. pneumoniae MMX 5440, Mem^R SXT^R CC^R Ery^R Pen^R) of the same molecule?
A: 1 µg/mL (≈ 2.77 µM)

Q: What about the MIC (S. pneumoniae; S. pneumoniae MMX 5445, Mem^R SXT^R CC^R Ery^R Pen^R) of the same molecule?
A: 1 µg/mL (≈ 2.77 µM)

Q: What about the MIC (S. pneumoniae; S. pneumoniae MMX 8133, Mem^R SXT^R CC^R Ery^R Pen^R) of the same molecule?
A: 1 µg/mL (≈ 2.77 µM)

Q: What about the MIC (S. pyogenes; S. pyogenes MMX 3068, Ery^R) of the same molecule?
A: 0.5 µg/mL (≈ 1.38 µM)

Q: And the MIC (S. pyogenes; S. pyogenes MMX 3820, ERY^R CLI^R)?
A: 0.25 µg/mL (≈ 0.692 µM)

Q: What about the MIC (S. pyogenes; S. pyogenes MMX 3919, ERY^R) of the same molecule?
A: 0.12 µg/mL (≈ 0.332 µM)

Q: And the MIC (S. pyogenes; S. pyogenes MMX 3929, ERY^R CC^R)?
A: 0.5 µg/mL (≈ 1.38 µM)

Q: And the MIC (S. pyogenes; S. pyogenes MMX 5091, ERY^R CC^R)?
A: 0.25 µg/mL (≈ 0.692 µM)

Q: And the MIC (S. agalactiae; S. agalactiae MMX 3741, ERY^R CC^R)?
A: 0.5 µg/mL (≈ 1.38 µM)

Q: And the MIC (S. agalactiae; S. agalactiae MMX 3743, ERY^R CC^R)?
A: 1 µg/mL (≈ 2.77 µM)

Q: And the MIC (S. agalactiae; S. agalactiae MMX 4077, ERY^R CC^R)?
A: 0.5 µg/mL (≈ 1.38 µM)

Q: What about the MIC (S. agalactiae; S. agalactiae MMX 4079, ERY^R CC^R Pen^R MEM^R) of the same molecule?
A: 1 µg/mL (≈ 2.77 µM)

Q: And the MIC (S. agalactiae; S. agalactiae MMX 4086, ERY^R CC^R)?
A: 0.5 µg/mL (≈ 1.38 µM)

Q: What about the MIC [6] of the same molecule?
A: ≥ 4 µg/mL

Q: What about the MIC50 (Haemophilus influenzae) of the same molecule?
A: 0.015 µg/mL (≈ 0.0415 µM)

Q: And the MIC90 (Haemophilus influenzae)?
A: 0.015 µg/mL (≈ 0.0415 µM)

Q: For Gentamicin, which “CLSI QC range of MIC” value (Escherichia coli [1]) is on record?
A: (0.25-1) μg/mL

Q: What about the “CLSI QC range of MIC” value (Pseudomonas aeruginosa [2]) of the same molecule?
A: (0.5-2) μg/mL

Q: And the MIC (Pseudomonas aeruginosa [4]; P. aeruginosa MMX 103 (ATCC 27853), QC)?
A: 1 µg/mL

Q: And the MIC (Pseudomonas aeruginosa [4]; P. aeruginosa MMX 1381, MDR, Lev^R, Cip^R, MEM^R, CAZ^R)?
A: 8 µg/mL

Q: And the MIC (Pseudomonas aeruginosa [4]; P. aeruginosa MMX 2562, MDR, Lev^R, Cip^R, MEM^R, CAZ^R)?
A: 8 µg/mL

Q: What about the MIC (Pseudomonas aeruginosa [4]; P. aeruginosa MMX 3991, MDR, Lev^R, Cip^R, MEM^R, CAZ^R) of the same molecule?
A: 4 µg/mL

Q: And the MIC (Pseudomonas aeruginosa [4]; P. aeruginosa MMX 4654, IMP-7, Lev^R, Cip^R, MEM^R, CAZ^R)?
A: >64 µg/mL

Q: What about the MIC (Pseudomonas aeruginosa [4]; P. aeruginosa MMX 4697, VIM-2, Lev^R, Cip^R, MEM^R, CAZ^R) of the same molecule?
A: 4 µg/mL

Q: What about the MIC (Acinetobacter baumannii; A. baumannii MMX 2592, MDR, Lev^R, Cip^R, MEM^R, CAZ^R, Gm^R) of the same molecule?
A: >64 µg/mL

Q: And the MIC (Acinetobacter baumannii; A. baumannii MMX 2593, MDR, Lev^R, Cip^R, MEM^R, CAZ^R, Gm^R)?
A: >64 µg/mL

Q: And the MIC (Acinetobacter baumannii; A. baumannii MMX 3372, MDR, Cip^R, MEM^I, CAZ^I)?
A: 0.5 µg/mL

Q: What about the MIC (Acinetobacter baumannii; A. baumannii MMX 3373, Sensitive) of the same molecule?
A: 0.12 µg/mL

Q: What about the MIC (Acinetobacter baumannii; A. baumannii MMX 4651 (NCTC 13304), MDR, OXA-27, Lev^R, Cip^R, MEM^R, CAZ^R, Gm^I) of the same molecule?
A: 8 µg/mL

Q: What about the MIC (E. faecalis; E. faecalis MMX 8960) of the same molecule?
A: >64 µg/mL

Q: And the MIC (E. faecalis; E. faecalis MMX 8961)?
A: 8 µg/mL

Q: And the MIC (E. faecalis; E. faecalis MMX 8962)?
A: >64 µg/mL

Q: What about the MIC (E. faecium; E. faecium MMX 485) of the same molecule?
A: >64 µg/mL

Q: And the MIC (E. faecium; E. faecium MMX 752)?
A: >64 µg/mL
